Columns and labels:
Test in all cases: cells
Assay type in all cases: functional, cell-based
Settings in all cases: Homo sapiens
SK-OV-3 = tested on: SK-OV-3;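 further: growth inhibition of SK-OV-3 human cells, read out with a cell viability assay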
Description: SANGER: Inhibition of human SK-OV-3 cell growth in a cell viability assay.

C3A = tested on: C3A;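 further: growth inhibition of C3A human cells, quantified with a cell viability readout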
Description: SANGER: Inhibition of human C3A cell growth in a cell viability assay.

NCI-H2087 = tested on: NCI-H2087;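 further: growth inhibition determined with a cell viability readout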
Description: SANGER: Inhibition of human NCI-H2087 cell growth in a cell viability assay.

HTC-C3 = tested on: HTC-C3;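 further: inhibition of cell growth, read out with a cell viability assay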
Description: SANGER: Inhibition of human HTC-C3 cell growth in a cell viability assay.

AGS = tested on: AGS;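 further: growth inhibition of AGS cells, determined with a cell viability assay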
Description: SANGER: Inhibition of human AGS cell growth in a cell viability assay.

MDA-MB-175-VII = tested on: MDA-MB-175-VII
PFSK-1 = tested on: PFSK-1;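 further: cell viability assay measuring how strongly compounds suppress growth of human PFSK-1 cells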
Description: SANGER: Inhibition of human PFSK-1 cell growth in a cell viability assay.

LB996-RCC = tested on: LB996-RCC
Description: SANGER: Inhibition of human LB996-RCC cell growth in a cell viability assay.

HT-1376 = tested on: HT-1376
Description: SANGER: Inhibition of human HT-1376 cell growth in a cell viability assay.

KP-4 = tested on: KP-4;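 further: human KP-4 cells, with growth inhibition read out through a cell viability assay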
Description: SANGER: Inhibition of human KP-4 cell growth in a cell viability assay.

NCI-H2452 = tested on: NCI-H2452;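 further: growth inhibition of NCI-H2452 cells, read out with a cell viability assay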
Description: SANGER: Inhibition of human NCI-H2452 cell growth in a cell viability assay.

GAMG = tested on: GAMG;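 further: cell growth inhibition measured by a viability assay in the GAMG human cell line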
Description: SANGER: Inhibition of human GAMG cell growth in a cell viability assay.

CAKI-1 = tested on: CAKI-1;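 further: growth inhibition of CAKI-1 cells, measured by a cell viability assay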
Description: SANGER: Inhibition of human CAKI-1 cell growth in a cell viability assay.

AN3-CA = tested on: AN3-CA;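 further: growth inhibition of human AN3-CA cells measured by a cell viability assay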
Description: SANGER: Inhibition of human AN3-CA cell growth in a cell viability assay.

NCI-H2291 = tested on: NCI-H2291
Description: SANGER: Inhibition of human NCI-H2291 cell growth in a cell viability assay.

DOK = tested on: DOK;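 further: cell viability assay read-out, values reflect inhibition of cell growth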
Description: SANGER: Inhibition of human DOK cell growth in a cell viability assay.

CaR-1 = tested on: CaR-1;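 further: growth inhibition of human CaR-1 cancer cells, read out with a cell viability assay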
Description: SANGER: Inhibition of human CaR-1 cell growth in a cell viability assay.

CAL-62 = tested on: CAL-62;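 further: growth inhibition of CAL-62 cells, read out with a cell viability assay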
Description: SANGER: Inhibition of human CAL-62 cell growth in a cell viability assay.

M059J = tested on: M059J;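 further: growth inhibition of M059J cells, read out with a cell viability assay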
Description: SANGER: Inhibition of human M059J cell growth in a cell viability assay.

D-566MG = tested on: D-566MG
HCC1569 = tested on: HCC1569;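 further: growth inhibition of human HCC1569 cells, read out with a cell viability assay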
Description: SANGER: Inhibition of human HCC1569 cell growth in a cell viability assay.

MG-63 = tested on: MG-63;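 further: growth inhibition of human MG-63 cells, read out with a cell viability assay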
Description: SANGER: Inhibition of human MG-63 cell growth in a cell viability assay.

HT55 = tested on: HT55;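 further: cell viability readout measuring growth inhibition of human HT55 cells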
Description: SANGER: Inhibition of human HT55 cell growth in a cell viability assay.

RERF-LC-MS = tested on: RERF-LC-MS;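 further: growth inhibition of human RERF-LC-MS cells, read out by a cell viability assay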
Description: SANGER: Inhibition of human RERF-LC-MS cell growth in a cell viability assay.

NY = tested on: NY
Description: SANGER: Inhibition of human NY cell growth in a cell viability assay.

NCI-H2347 = tested on: NCI-H2347;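 further: growth inhibition of the cell line, read out with a cell viability assay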
Description: SANGER: Inhibition of human NCI-H2347 cell growth in a cell viability assay.

769-P = tested on: 769-P
Description: SANGER: Inhibition of human 769-P cell growth in a cell viability assay.

SK-N-AS = tested on: SK-N-AS;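 further: growth inhibition of human SK-N-AS cells, measured with a cell viability assay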
Description: SANGER: Inhibition of human SK-N-AS cell growth in a cell viability assay.

HuO9 = tested on: HuO9;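 further: growth inhibition of HuO9 cells, read out with a cell viability assay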
Description: SANGER: Inhibition of human HuO9 cell growth in a cell viability assay.

CAL-85-1 = tested on: CAL-85-1;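 further: growth inhibition of human CAL-85-1 cells, read out with a cell viability assay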
Description: SANGER: Inhibition of human CAL-85-1 cell growth in a cell viability assay.

SKG-IIIa = tested on: SKG-IIIa;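 further: cell growth inhibition, read out with a cell viability assay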
Description: SANGER: Inhibition of human SKG-IIIa cell growth in a cell viability assay.

KYSE-450 = tested on: KYSE-450;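 further: cell growth inhibition measured by a viability assay in human KYSE-450 cells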
Description: SANGER: Inhibition of human KYSE-450 cell growth in a cell viability assay.

WM-115 = tested on: WM-115
Description: SANGER: Inhibition of human WM-115 cell growth in a cell viability assay.

NCI-H460 = tested on: NCI-H460;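 further: cell viability assay scoring growth inhibition of human NCI-H460 cells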
Description: SANGER: Inhibition of human NCI-H460 cell growth in a cell viability assay.

PC-3 = tested on: PC-3;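 further: cell viability assay measuring growth inhibition of PC-3 cells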
Description: SANGER: Inhibition of human PC-3 cell growth in a cell viability assay.

D-423MG = tested on: D-423MG
Description: SANGER: Inhibition of human D-423MG cell growth in a cell viability assay.

OE19 = tested on: OE19;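 further: growth inhibition of OE19 cells, measured through a cell viability read-out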
Description: SANGER: Inhibition of human OE19 cell growth in a cell viability assay.

SK-MEL-30 = tested on: SK-MEL-30;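 further: growth inhibition of SK-MEL-30 cells, determined with a cell viability assay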
Description: SANGER: Inhibition of human SK-MEL-30 cell growth in a cell viability assay.

Panc1005 = tested on: Panc1005;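 further: growth inhibition of human PANC-10-05 cells, measured by a cell viability assay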
Description: SANGER: Inhibition of human PANC-10-05 cell growth in a cell viability assay.

SW1417 = tested on: SW1417;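 further: growth inhibition of human SW1417 cells, read out with a cell viability assay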
Description: SANGER: Inhibition of human SW1417 cell growth in a cell viability assay.

HN = tested on: HN
Description: SANGER: Inhibition of human HN cell growth in a cell viability assay.

Hs-578T = tested on: Hs-578T
Description: SANGER: Inhibition of human Hs-578-T cell growth in a cell viability assay.

BALL-1 = tested on: BALL-1;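 further: growth inhibition of BALL-1 cells, read out with a cell viability assay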
Description: SANGER: Inhibition of human BALL-1 cell growth in a cell viability assay.

HuP-T3 = tested on: HuP-T3;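 further: HuP-T3 cell growth inhibition, read out with a cell viability assay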
Description: SANGER: Inhibition of human HuP-T3 cell growth in a cell viability assay.

CAL-33 = tested on: CAL-33;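 further: growth inhibition of CAL-33 cells, read out with a cell viability assay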
Description: SANGER: Inhibition of human CAL-33 cell growth in a cell viability assay.

NB7 = tested on: NB7;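 further: growth inhibition of NB7 cells, read out with a cell viability assay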
Description: SANGER: Inhibition of human NB7 cell growth in a cell viability assay.

SNU-449 = tested on: SNU-449
Description: SANGER: Inhibition of human SNU-449 cell growth in a cell viability assay.

NCI-H1703 = tested on: NCI-H1703;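 further: growth inhibition of NCI-H1703 cells, read out via a cell viability assay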
Description: SANGER: Inhibition of human NCI-H1703 cell growth in a cell viability assay.

A 172 = tested on: A 172;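 further: growth inhibition of A172 cells, measured with a cell viability readout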
Description: SANGER: Inhibition of human A172 cell growth in a cell viability assay.

In the case of `Cn1c(=O)n(-c2ccc(C(C)(C)C#N)cc2)c2c3cc(-c4cnc5ccccc5c4)ccc3ncc21` [DACTOLISIB], the IC50 (SK-OV-3) is reported as 100 nM, the IC50 (C3A) is reported as > 2000 nM and the IC50 (NCI-H2087) is reported as 235 nM. For the same compound, the IC50 (HTC-C3) was 117 nM, the IC50 (AGS) was 48.8 nM and the IC50 (MDA-MB-175-VII) was 39.5 nM. It also gave an IC50 (PFSK-1) of 49.1 nM, an IC50 (LB996-RCC) of 47.2 nM and an IC50 (HT-1376) of 385 nM. For the same compound, the IC50 (KP-4) was 7 nM, the IC50 (NCI-H2452) was 44.6 nM and the IC50 (GAMG) was 19.5 nM. The IC50 (CAKI-1) was 36.4 nM, the IC50 (AN3-CA) was 5.56 nM and the IC50 (NCI-H2291) was 598 nM. The IC50 (DOK) was 56 nM, the IC50 (CaR-1) was 68.2 nM and the IC50 (CAL-62) was 36.9 nM. For the same compound, the IC50 (M059J) was 63.6 nM, the IC50 (D-566MG) was 17.7 nM and the IC50 (HCC1569) was 276 nM. The IC50 (MG-63) was 23.4 nM, the IC50 (HT55) was 1310 nM and the IC50 (RERF-LC-MS) was 124 nM. It also gave an IC50 (NY) of 1170 nM, an IC50 (NCI-H2347) of 173 nM and an IC50 (769-P) of 10.4 nM. The IC50 (SK-N-AS) was 137 nM, the IC50 (HuO9) was 26.8 nM and the IC50 (CAL-85-1) was 92.5 nM. For the same compound, the IC50 (SKG-IIIa) was 129 nM, the IC50 (KYSE-450) was 55.2 nM and the IC50 (WM-115) was 68.1 nM. The IC50 (NCI-H460) was 81.2 nM, the IC50 (PC-3) was 5.09 nM and the IC50 (D-423MG) was 52.1 nM. It also gave an IC50 (OE19) of 341 nM, an IC50 (SK-MEL-30) of 196 nM and an IC50 (Panc1005) of 246 nM. For the same compound, the IC50 (SW1417) was > 2000 nM, the IC50 (HN) was 5.96 nM and the IC50 (Hs-578T) was 24.6 nM. The IC50 (BALL-1) was > 2000 nM, the IC50 (HuP-T3) was 1120 nM and the IC50 (CAL-33) was 85.1 nM. The IC50 (NB7) was 190 nM and the IC50 (SNU-449) was 75.8 nM.

In the case of `C[C@]12O[C@H](C[C@]1(O)CO)n1c3ccccc3c3c4c(c5c6ccccc6n2c5c31)CNC4=O` [LESTAURTINIB], the IC50 (SK-OV-3) is reported as 224 nM, the IC50 (C3A) is reported as > 2000 nM and the IC50 (NCI-H2087) is reported as > 2000 nM. For the same compound, the IC50 (HTC-C3) was 186 nM, the IC50 (AGS) was 69.1 nM and the IC50 (MDA-MB-175-VII) was 1140 nM. For the same compound, the IC50 (PFSK-1) was > 2000 nM, the IC50 (HT-1376) was > 2000 nM and the IC50 (KP-4) was 568 nM. The IC50 (NCI-H2452) was 1540 nM, the IC50 (GAMG) was 382 nM and the IC50 (CAKI-1) was 334 nM. It also gave an IC50 (AN3-CA) of 1250 nM, an IC50 (NCI-H2291) of 1800 nM and an IC50 (DOK) of 297 nM. For the same compound, the IC50 (CaR-1) was 147 nM, the IC50 (NCI-H1703) was 345 nM and the IC50 (CAL-62) was 254 nM. The IC50 (M059J) was 516 nM, the IC50 (D-566MG) was 96.5 nM and the IC50 (HCC1569) was > 2000 nM. The IC50 (MG-63) was 445 nM, the IC50 (HT55) was > 2000 nM and the IC50 (RERF-LC-MS) was 812 nM. The IC50 (NY) was > 2000 nM, the IC50 (A 172) was 1940 nM and the IC50 (NCI-H2347) was > 2000 nM. The IC50 (769-P) was 1610 nM, the IC50 (SK-N-AS) was 145 nM and the IC50 (HuO9) was 561 nM. The IC50 (CAL-85-1) was > 2000 nM, the IC50 (SKG-IIIa) was 255 nM and the IC50 (KYSE-450) was > 2000 nM. For the same compound, the IC50 (WM-115) was > 2000 nM, the IC50 (NCI-H460) was 1170 nM and the IC50 (PC-3) was 1710 nM. The IC50 (D-423MG) was 571 nM, the IC50 (OE19) was > 2000 nM and the IC50 (SK-MEL-30) was 512 nM. For the same compound, the IC50 (Panc1005) was > 2000 nM, the IC50 (SW1417) was 1170 nM and the IC50 (HN) was 182 nM. For the same compound, the IC50 (Hs-578T) was 997 nM, the IC50 (BALL-1) was > 2000 nM and the IC50 (HuP-T3) was 966 nM. For the same compound, the IC50 (CAL-33) was 730 nM, the IC50 (NB7) was 899 nM and the IC50 (SNU-449) was > 2000 nM.

For `C[C@]1(c2nc3c(C(N)=O)cccc3[nH]2)CCCN1` [VELIPARIB], the IC50 (SK-OV-3) was > 5000 nM, the IC50 (C3A) was > 5000 nM and the IC50 (NCI-H2087) was > 5000 nM. For the same compound, the IC50 (HTC-C3) was > 5000 nM, the IC50 (AGS) was > 5000 nM and the IC50 (MDA-MB-175-VII) was > 5000 nM. The IC50 (PFSK-1) was > 5000 nM, the IC50 (HT-1376) was > 5000 nM and the IC50 (KP-4) was > 5000 nM. The IC50 (NCI-H2452) was > 5000 nM, the IC50 (GAMG) was > 5000 nM and the IC50 (CAKI-1) was > 5000 nM. For the same compound, the IC50 (AN3-CA) was > 5000 nM, the IC50 (NCI-H2291) was > 5000 nM and the IC50 (DOK) was > 5000 nM. The IC50 (CaR-1) was > 5000 nM, the IC50 (NCI-H1703) was > 5000 nM and the IC50 (CAL-62) was > 5000 nM. For the same compound, the IC50 (M059J) was > 5000 nM, the IC50 (D-566MG) was > 5000 nM and the IC50 (HCC1569) was > 5000 nM. For the same compound, the IC50 (MG-63) was > 5000 nM, the IC50 (HT55) was > 5000 nM and the IC50 (RERF-LC-MS) was > 5000 nM. The IC50 (NY) was > 5000 nM, the IC50 (A 172) was > 5000 nM and the IC50 (NCI-H2347) was > 5000 nM. For the same compound, the IC50 (769-P) was > 5000 nM, the IC50 (SK-N-AS) was > 5000 nM and the IC50 (HuO9) was > 5000 nM. The IC50 (CAL-85-1) was > 5000 nM, the IC50 (SKG-IIIa) was > 5000 nM and the IC50 (KYSE-450) was > 5000 nM. For the same compound, the IC50 (WM-115) was > 5000 nM, the IC50 (NCI-H460) was > 5000 nM and the IC50 (PC-3) was > 5000 nM. For the same compound, the IC50 (D-423MG) was > 5000 nM, the IC50 (OE19) was > 5000 nM and the IC50 (SK-MEL-30) was > 5000 nM. For the same compound, the IC50 (Panc1005) was > 5000 nM, the IC50 (SW1417) was > 5000 nM and the IC50 (HN) was > 5000 nM. The IC50 (Hs-578T) was > 5000 nM, the IC50 (BALL-1) was > 5000 nM and the IC50 (HuP-T3) was > 5000 nM. For the same compound, the IC50 (CAL-33) was > 5000 nM, the IC50 (NB7) was > 5000 nM and the IC50 (SNU-449) was > 5000 nM.
